From PubChem BioAssay (NCI)
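Method: 48-hour compound exposure of cells in 96-well plates, five concentrations, linear interpolation of endpoints. GI50: concentration for 50% inhibition of growth. At the TGI there is no net growth.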

Columns and labels:
Assay in all cases: NCI tumour cell line growth inhibition, 48 h
SW-620 colon = test system: SW-620 colon
SNB-75 CNS = test system: SNB-75 CNS
DU-145 prostate = test system: DU-145 prostate
SF-539 CNS = test system: SF-539 CNS
RPMI-8226 leukemia = test system: RPMI-8226 leukemia
SK-MEL-5 melanoma = test system: SK-MEL-5 melanoma
SNB-19 CNS = test system: SNB-19 CNS
HOP-92 NSCLC = test system: HOP-92 NSCLC
U251 CNS = test system: U251 CNS
HT29 colon = test system: HT29 colon
PC-3 prostate = test system: PC-3 prostate
LOX IMVI melanoma = test system: LOX IMVI melanoma
HL-60(TB) leukemia = test system: HL-60(TB) leukemia
BT-549 breast = test system: BT-549 breast
ACHN renal = test system: ACHN renal
OVCAR-4 ovarian = test system: OVCAR-4 ovarian
SK-OV-3 ovarian = test system: SK-OV-3 ovarian
HCT-116 colon = test system: HCT-116 colon
SF-295 CNS = test system: SF-295 CNS
IGROV1 ovarian = test system: IGROV1 ovarian
A498 renal = test system: A498 renal
OVCAR-3 ovarian = test system: OVCAR-3 ovarian
SF-268 CNS = test system: SF-268 CNS
K-562 leukemia = test system: K-562 leukemia
HCC-2998 colon = test system: HCC-2998 colon
A549 NSCLC = test system: A549 NSCLC
M14 melanoma = test system: M14 melanoma
OVCAR-8 ovarian = test system: OVCAR-8 ovarian
COLO 205 colon = test system: COLO 205 colon
NCI-H522 lung = test system: NCI-H522 lung
NCI-H460 lung = test system: NCI-H460 lung
HCT-15 colon = test system: HCT-15 colon
KM12 colon = test system: KM12 colon
NCI-H23 lung = test system: NCI-H23 lung
SR leukemia = test system: SR leukemia
CCRF-CEM leukemia = test system: CCRF-CEM leukemia
MOLT-4 leukemia = test system: MOLT-4 leukemia
MCF7 breast = test system: MCF7 breast
NCI/ADR-RES ovarian = test system: NCI/ADR-RES ovarian
786-0 renal = test system: 786-0 renal
SK-MEL-2 melanoma = test system: SK-MEL-2 melanoma
T-47D breast = test system: T-47D breast
SN12C renal = test system: SN12C renal
HOP-62 NSCLC = test system: HOP-62 NSCLC
MDA-MB-231 breast = test system: MDA-MB-231 breast
NCI-H226 lung = test system: NCI-H226 lung
RXF 393 renal = test system: RXF 393 renal
HS 578T breast = test system: HS 578T breast

O=C(Nc1ccc2[nH]nc(-c3ccncc3)c2c1)[C@@H]1CCN(CC(=O)N2CCN(c3ccc(-c4ncccn4)cc3)CC2)C1
GI50 (SW-620 colon): 0.101 µM | TGI (SW-620 colon): > 100 µM | GI50 (SNB-75 CNS): 18.2 µM | TGI (SNB-75 CNS): > 90.8 µM | GI50 (DU-145 prostate): 7.58 µM | TGI (DU-145 prostate): > 100 µM | GI50 (SF-539 CNS): 5.1 µM | TGI (SF-539 CNS): 31.3 µM | GI50 (RPMI-8226 leukemia): 4.29 µM | TGI (RPMI-8226 leukemia): > 66.7 µM | GI50 (SK-MEL-5 melanoma): 0.607 µM | TGI (SK-MEL-5 melanoma): > 100 µM | GI50 (SNB-19 CNS): > 100 µM | TGI (SNB-19 CNS): > 100 µM | GI50 (HOP-92 NSCLC): 0.105 µM | TGI (HOP-92 NSCLC): 1.81 µM | GI50 (U251 CNS): 0.613 µM | TGI (U251 CNS): 18.9 µM | GI50 (HT29 colon): 0.0335 µM | TGI (HT29 colon): > 100 µM | GI50 (PC-3 prostate): 13.7 µM | TGI (PC-3 prostate): > 100 µM | GI50 (LOX IMVI melanoma): 0.0539 µM | TGI (LOX IMVI melanoma): > 100 µM | GI50 (HL-60(TB) leukemia): 0.132 µM | TGI (HL-60(TB) leukemia): > 100 µM | TGI (BT-549 breast): > 100 µM | GI50 (ACHN renal): 2.08 µM | TGI (ACHN renal): > 100 µM | GI50 (OVCAR-4 ovarian): 5.91 µM | TGI (OVCAR-4 ovarian): > 100 µM | GI50 (SK-OV-3 ovarian): > 100 µM | TGI (SK-OV-3 ovarian): > 100 µM | GI50 (HCT-116 colon): 0.0783 µM | TGI (HCT-116 colon): > 44.6 µM | GI50 (SF-295 CNS): > 100 µM | TGI (SF-295 CNS): > 100 µM | GI50 (IGROV1 ovarian): 0.964 µM | TGI (IGROV1 ovarian): > 100 µM | GI50 (A498 renal): 0.0778 µM | TGI (A498 renal): 0.533 µM | GI50 (OVCAR-3 ovarian): > 100 µM | TGI (OVCAR-3 ovarian): > 100 µM | GI50 (SF-268 CNS): > 69.7 µM | TGI (SF-268 CNS): > 100 µM | GI50 (K-562 leukemia): 1.96 µM | TGI (K-562 leukemia): > 73.2 µM | GI50 (HCC-2998 colon): 0.241 µM | TGI (HCC-2998 colon): > 100 µM | GI50 (A549 NSCLC): 5.09 µM | TGI (A549 NSCLC): > 100 µM | GI50 (M14 melanoma): 0.0282 µM | TGI (M14 melanoma): 0.289 µM | GI50 (OVCAR-8 ovarian): 3.65 µM | TGI (OVCAR-8 ovarian): > 100 µM | GI50 (COLO 205 colon): < 0.012 µM | TGI (COLO 205 colon): > 82.3 µM | GI50 (NCI-H522 lung): 7.27 µM | TGI (NCI-H522 lung): > 100 µM | GI50 (NCI-H460 lung): > 100 µM | TGI (NCI-H460 lung): > 100 µM | GI50 (HCT-15 colon): 7.79 µM | TGI (HCT-15 colon): > 100 µM | GI50 (KM12 colon): 0.431 µM | TGI (KM12 colon): > 100 µM | GI50 (NCI-H23 lung): 0.0991 µM | TGI (NCI-H23 lung): > 100 µM | GI50 (SR leukemia): 4.41 µM | TGI (SR leukemia): > 65.4 µM | GI50 (CCRF-CEM leukemia): 5.49 µM | TGI (CCRF-CEM leukemia): > 100 µM | GI50 (MOLT-4 leukemia): 5.22 µM | TGI (MOLT-4 leukemia): > 80.6 µM | GI50 (MCF7 breast): > 100 µM | TGI (MCF7 breast): > 100 µM | GI50 (NCI/ADR-RES ovarian): > 100 µM | TGI (NCI/ADR-RES ovarian): > 100 µM | GI50 (786-0 renal): 47.4 µM | TGI (786-0 renal): > 100 µM | GI50 (SK-MEL-2 melanoma): 0.0269 µM | TGI (SK-MEL-2 melanoma): 0.223 µM | GI50 (T-47D breast): 2.74 µM | TGI (T-47D breast): > 100 µM | GI50 (SN12C renal): > 100 µM | TGI (SN12C renal): > 100 µM | GI50 (HOP-62 NSCLC): 0.281 µM | TGI (HOP-62 NSCLC): > 100 µM | GI50 (MDA-MB-231 breast): 0.0528 µM | TGI (MDA-MB-231 breast): > 100 µM | GI50 (NCI-H226 lung): > 100 µM | TGI (NCI-H226 lung): > 100 µM | GI50 (RXF 393 renal): 2.84 µM | TGI (RXF 393 renal): > 100 µM | GI50 (HS 578T breast): > 100 µM | TGI (HS 578T breast): > 100 µM
